Laboratory results published in patent US10617750B2, “Partner of SLD five 1 (PSF1)-derived peptide” (Vasculead Inc., priority 2012, dated 2020).
No end group written: not given here.

Assays:
T2 cells = assay: Human CTL cytotoxic assay; assay type: cell-based
Procedure: Specifically, assay conditions were set with reference to a method described in a known report (New CFSE-based assay to determine susceptibility to lysis by cytotoxic T cells of leukemic precursor cells within a heterogeneous target cell population. Jedema I. et al. Blood 2004; 103:2677-2682).
As target cells for use in the cytotoxic assay, 1 μM of CellTracker™ Green CMFDA (5-chloromethylfluorescein diacetate) (Invitrogen Corp., Carlsbad, Calif.) was added to T2 cells, and these cells were allowed to react with each other at 37° C. for 15 minutes. The T2 cells were labeled with CMFDA, which is a fluorescent marker, washed with AIM-V, supplemented with assay peptides (20 μg/ml), and incubated for one night. As target cells of a negative control, T2 cells only labeled with a fluorescent marker were used (without peptide addition). The cells were washed with an AIM-V culture medium including antibiotic and serum to have a concentration of 5×10^4 cells/ml.
The cells were prepared to have concentrations of 50, 15, 5×10^4 cells/ml after washing with AIM-V. The preparation was performed with an AIM-V culture medium including antibiotic and serum.
Target cells (T) supplemented with peptides used in CTL induction or target cells (T) of a negative control supplemented with no peptides were mixed with effector cells (E) at a cell ratio (E/T ratio) of 10:1, 3:1, and 1:1, and cocultured for one night. Immediately before measurement with a MACS Quant (Miltenyi Biotec, San Diego, Calif.) or a FACS Aria, 0.1 μg/ml of DAPI was added in order to distinguish living cells from dead cells by means of staining. In an analysis, the proportion of DAPI-negative cells (living cells) in target cells labeled with CMFDA was obtained, and the survival rate of target cells was calculated using incubation conditions (only for target cells) where coculture with effector cells was not performed as 100%.

peptide specific CTL = assay: CTL inducibility of peptides (summary statement); assay type: cell-based
From the text: According to the embodiments of the present invention, the phrase “having CTL inducibility” means that the peptide is recognized by a specific CTL. In other word, the peptide has an ability to induce a peptide specific CTL. […] The ability to induce the peptide specific CTL can be examined by, for example, determining whether or not a cytokine such as interferon-γ (IFN-γ) is produced by peptide-stimulated peripheral blood mononuclear cells (PBMCs) in response to antigen presenting cells which are pulsed with said peptide using the ELISA technique or the like. In addition, cytotoxic activity of the induced CTL can be determined by the ^51Cr-release assay and the like. The peptide of the present invention is preferred to have 8 to 14, more preferably 8 to 11 and especially, 9 or 10 amino acid residues in view of good recognition by CTL.
These all three peptides are located in the region from 79 to 100 of PSF1 (FIG. 3). […] (SEQ ID NO.:6) or […] (SEQ ID NO.: 8) or […]

[1] = test system: peptide specific human CTL; assay: Human CTL induction assay (IFN-γ ELISPOT); assay type: cell-based; conditions: for Positive donor number: HLA-A0201 healthy volunteers, positive = difference of 50 or more peptide specific spots; for Donor positive percentage: positive donors / donors examined
Procedure: A human CTL induction assay was conducted under conditions with reference to a known report (Harano et al. Int. J. Cancer 2008; 123:2616-2625).
Heparinized peripheral blood of healthy volunteers having HLA-A0201 was subjected to centrifugation at 3000 rpm for 20 minutes, thereby removing plasma. Cell pellets were supplemented with HBSS(−) (Wako Pure Chemical Industries, Ltd, Richmond, Va.) to which 5 mM of HEPES (SIGMA, Carlsbad, Calif.) had been added, and were suspended, thereby overlaying the suspension over a Ficoll-paque PREMIUM (GE Healthcare, Ltd., Pittsburgh, Pa.). Then, 400 g of the resulting substance was subjected to centrifugation for 40 minutes, and peripheral blood […] cells (PBMCs) separated as an intermediate layer were collected.
PBMCs were supplemented with CD14 microbeads (Miltenyi Biotec K.K.), and caused to react at 4° C. for 15 minutes. The cells were passed through LS columns (Miltenyi Biotec K.K., Tokyo, Japan), and CD14-positive cells were obtained by using QuadroMACS™ Separator (Miltenyi Biotec K.K., Tokyo, Japan). The rest of the cells were collected and washed, and then supplemented with CD8 microbeads (Miltenyi Biotec K.K., Tokyo, Japan) and allowed to react at 4° C. for 15 minutes. Thereafter, a similar process is performed, thereby obtaining CD8-positive cells. The CD14-positive cells were subjected to differentiation induction to monocyte-derived dendritic cells (Mo-DCs), and CD8-positive cells were temporarily frozen for storage.
Since CD8-positive cells were subjected to antigen stimulation twice, peptide-presenting cells were produced twice accordingly. CD14-positive cells were disseminated in two RepCell plates (CellSeed Inc., Tokyo, Japan), and incubated in a 5% CO2 incubator at 37° C. with a culture solution in which 100 ng/ml GM-CSF (R&D Systems, Minneapolis, Minn.) and 10 ng/ml IL-4 (R&D Systems) were added to an AIM-V (Invitrogen Corporation, Carlsbad, Calif.) culture medium including antibiotic and serum.
First production of peptide-presenting cells was started 5-7 days after the start of incubation. To one of the plates, 0.1 KE/ml OK-432 (Chugai Pharmaceutical Co., Ltd., Tokyo, Japan) was added, and on the next day, cells were collected and inoculated in a 96-well U-bottom plate. Then, 20 μg/ml of assay peptide of one type was added to each half area (48 wells) of the plate, and incubated for one day at 37° C. in a 5% CO2 incubator, thereby producing peptide-presenting cells. Second production was performed similarly on the other plate 12-14 days after the start of incubation.
Peptide-presenting cells in a 96-well plate were irradiated with X rays (30 Gy), and the frozen stored CD8-positive cells were added to all the wells, thereby performing first antigen stimulation. As a culture solution, a solution in which 10 ng/ml IL-7 (R&D Systems, Minneapolis, Minn.) was added to an AIM-V culture medium including antibiotic and serum was used. After incubation for seven days, cells included in supernatant were collected and cocultured with peptide-presenting cells (after X-ray irradiation) obtained by the second production, thereby performing second antigen stimulation in the 96-well plate. At this time, 20 U/mL of IL-2 (Shionogi & Co., Ltd., Florham Park, N.J.) was added to the culture solution. After further incubation for seven days, cells in supernatant including CTL were collected and washed with an AIM-V culture medium including antibiotic and serum to have a concentration of approximately 2×10^5 cells/ml per well, thereby obtaining responder cells for an ELISPOT assay.
T2 cells of stimulator cells for use in an ELISPOT assay were produced by incubating the cells for one night in an AIM-V culture medium supplemented with an assay peptide (20 μg/mL). As stimulator cells of a negative control, only T2 cells were used (without peptides). […]

[2] = test system: peptide specific CTL through HLA-A02; assay: Mouse CTL induction assay (IFN-γ ELISPOT after peptide immunization); assay type: in vivo; conditions: CB6F1-Tg (HLA-A0201/H2-Kb) mice, 50 μg peptide/mice, spleen cells two weeks after injection; IFN-γ spots minus negative control peptide
Procedure: The mouse CTL inducing activity with peptides was determined by using mouse immune models. Regarding mice, CB6F1-Tg (HLA-A0201/H2-Kb)A0201 was obtained from Taconic Biosciences, Inc. At most five types of peptide solutions dissolved in DMSO were mixed to produce a PBS solution, and the PBS solution was mixed together with the same amount of MONTANIDE ISA 51VG (SEPPIC), thereby producing an emulsion antigen solution. Then, 50 μL of the antigen solution was used for hypodermic injection into each of two sites at both sides of the belly of the mice (50 μg peptide/mice, N=3-4). Two weeks after the injection, spleen was removed, and spleen cells from which erythrocyte had been eliminated with a solution (BD Pharm Lyse™, Becton, Dickinson and Company, La Jolla, Calif.) were collected as responder cells for an ELISPOT assay.
The ELISPOT assay was conducted by detecting IFN-γ produced from responder cells. The procedure thereof conformed to an accompanying document of an assay kit, Mouse IFN-γ ELISpot^PLUS (MABTECH, Cincinnati, Ohio). Preincubation for the IFN-γ production was performed by adding cells to a 96-well plate included in the assay kit. Stimulator cells were inoculated in a duplicate well or a single well of 5×10^4 cell/100 μL/well, and then responder cells were added to 2×10^6 cell/100 μL/well. After one-night coculture, the cells were removed and the well was washed, and then primary antibodies (biotin-antimouse IFN-γ antibodies) included in the assay kit were added. After reaction for two hours at room temperature, the well was washed, supplemented with secondary antibodies (streptavidin-ALP), and subjected to reaction for one hour at room temperature. After having been sufficiently washed, the cells were supplemented with a substrate solution and left for one minute at room temperature. To terminate coloring reaction, the plate was sufficiently washed with running water and was air-dried.
The number of blue spots observed at the well bottom was measured with an ImmunoSpot® S5 Verse Analyzer (Cellular Technology Limited, Shaker Heights, Ohio). Measurement values of unclear spots because of a wide range of coloring were not used. An average value was obtained for the duplicate well, and the difference from the negative control was calculated in order to obtain the number of spots specific to peptides. The average value and the SD value were calculated by using values for individual mice, and the case having a positive number of differences between the average value and the SD value was determined as positive.

| Sequence | Positive donor number [1] | Donor positive percentage [1] | Specific spot number (Ave ± SD) [2] | also measured |
| --- | --- | --- | --- | --- |
| ALRWEYGSV |  |  |  | cytotoxic activity (T2 cells): particularly high |
| ALRWEYGSVL [PSF1-derived peptide, initiating amino acid no; 89] | 2 | 100% |  | CTL inducibility (peptide specific CTL): high; Survival rate of target cells pulsed with peptide vs not pulsed (T2 cells; CTL line specific to the peptide cocultured with T2 cells at E:T 1:1, 3:1, 10:1, FIG. 2): decreased to a degree greater than target cells not pulsed with peptides |
| ALYEQNQDSV [PSF1-derived peptide, initiating amino acid no; 38] |  |  | 30 ± 15 |  |
| AYLYDRLLRI [PSF1-derived peptide, initiating amino acid no; 78] |  |  | 23 ± 21 | CTL inducibility (peptide specific CTL): high |
| CLKDYGEFEV [PSF1-derived peptide, initiating amino acid no; 152] |  |  | 53 ± 28 |  |
| EMKALYEQN [PSF1-derived peptide, initiating amino acid number 35] | 1 | 13% | 6 ± 8 |  |
| FLPRWKCEQL [PSF1-derived peptide, initiating amino acid no; 176] |  |  | 31 ± 24 |  |
| GDEGLDITQDMKP [PSF1-derived peptide, initiating amino acid number 130] | 0 | 0% | 1 ± 2 |  |
| KAMELIREL [PSF1-derived peptide, initiating amino acid no] |  |  | 22 ± 13 |  |
| LIRNRRCTV |  |  | 7 ± 9 |  |
| LPAFNEDGLRQV [PSF1-derived peptide, initiating amino acid number 21] | 0 | 0% | 3 ± 8 |  |
| QVLEEMKAL [PSF1-derived peptide, initiating amino acid no; 31] |  |  | 7 ± 7 |  |
| RALRWEYGSV [PSF1-derived peptide, initiating amino acid no; 88] | 3 | 60% |  | CTL inducibility (peptide specific CTL): high |
| RALRWEYGSVLPN |  |  |  | cytotoxic activity (T2 cells): particularly high |
| SLATYMRSL [PSF1-derived peptide, initiating amino acid no; 120] |  |  | 70 ± 79 |  |
| SLLRNRRCTV [PSF1-derived peptide, initiating amino acid no; 68] |  |  | 1 ± 2 |  |
| SLYIEVRCL [PSF1-derived peptide, initiating amino acid no; 145] | 2 | 100% | 43 ± 24 |  |
| VLPNALRFHM [PSF1-derived peptide, initiating amino acid no; 97] |  |  | 127 ± 41 |  |
| YLYDRLLRI |  |  |  | cytotoxic activity (T2 cells): particularly high |
| YLYDRLLRIR [PSF1-derived peptide, initiating amino acid no; 79] |  |  | 165 ± 17 | CTL inducibility (peptide specific CTL): high |
